Test systems include SK-MEL-2 melanoma; SK-OV-3 ovarian; OVCAR-5 ovarian; SW-620 colon; RXF 393 renal; COLO 205 colon; SN12C renal; TK-10 renal; HCT-116 colon; MOLT-4 leukemia.
Common to all, as to test: DTP human tumour cell line panel, 48 h

The results in this text go back to PubChem BioAssay (NCI).

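96-well plates; 48 h exposure; 5 concentrations. Endpoints by linear interpolation between flanking doses. Not reached: highest tested concentration assigned. Here, GI50 denotes the concentration required for 50% inhibition of growth. TGI: concentration producing complete growth inhibition.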

By TGI is commonly meant the concentration giving total growth inhibition. Turning to `Cc1cc(N(CCC#N)CCC#N)ccc1N=Nc1ccc([N+](=O)[O-])cc1`, the TGI is greater than 100 µM with SK-MEL-2 melanoma; greater than 10 µM in the test with SK-OV-3 ovarian; greater than 100 µM in the test with OVCAR-5 ovarian; greater than 10 µM in the test with SW-620 colon; greater than 100 µM with RXF 393 renal; greater than 100 µM with COLO 205 colon. Also, the total growth inhibition concentration (TGI) was greater than 100 µM in the test on SN12C renal, 83.2 µM with TK-10 renal, 31.6 µM in the test with HCT-116 colon and greater than 100 µM in the test on MOLT-4 leukemia.
Regarding `CCN1CCC(O)(c2ccccc2)C(C(=O)c2ccccc2)C1` (configuration not stated), the TGI was greater than 100 µM in the test with SK-MEL-2 melanoma; greater than 100 µM in the test on SK-OV-3 ovarian; 37.5 µM with OVCAR-5 ovarian; 38.3 µM with SW-620 colon; 29.7 µM with RXF 393 renal; 53.1 µM in the test on COLO 205 colon. The TGI in the test on SN12C renal was greater than 31.6 µM; in the test on TK-10 renal it was 47.3 µM; with HCT-116 colon, 31 µM; in the test with MOLT-4 leukemia it was greater than 60.2 µM.
Regarding `O=[N+]([O-])c1ccc(N=Nc2c(O)[nH]c3ccc(Br)cc23)c([N+](=O)[O-])c1`, the TGI in the test with SK-MEL-2 melanoma turned out to be 8.04 µM; in the test with SK-OV-3 ovarian it was 34.7 µM; in the test on SW-620 colon, 11.7 µM; with RXF 393 renal it was 15.3 µM; in the test with COLO 205 colon, 5.92 µM; in the test on SN12C renal, 11.4 µM. In addition, the TGI in the test with TK-10 renal amounted to 37.8 µM; in the test with HCT-116 colon, 3.09 µM; in the test on MOLT-4 leukemia, 26.2 µM.
Broadly, the GI50 is the concentration giving 50% growth inhibition. For `COc1cc(-c2cn(-c3ccc(Cl)cc3)c(=O)n2-c2ccccc2)cc(OC)c1OC`, the GI50 in the test with SK-MEL-2 melanoma was greater than 25.9 µM; in the test on SK-OV-3 ovarian, 74.9 µM; in the test with OVCAR-5 ovarian, greater than 100 µM; with SW-620 colon it was greater than 100 µM; with RXF 393 renal, 25.4 µM; with COLO 205 colon, 51 µM. Also, the GI50 is greater than 100 µM in the test on SN12C renal, greater than 100 µM with TK-10 renal, 45.8 µM with HCT-116 colon and 59.6 µM with MOLT-4 leukemia. The TGI in the test with SK-MEL-2 melanoma was greater than 100 µM; in the test on SK-OV-3 ovarian, greater than 100 µM; in the test with OVCAR-5 ovarian, greater than 100 µM; in the test on SW-620 colon, greater than 100 µM; with RXF 393 renal, greater than 81.9 µM; in the test on COLO 205 colon it was greater than 100 µM. Besides, the TGI in the test with SN12C renal, with TK-10 renal, in the test with HCT-116 colon and in the test on MOLT-4 leukemia was greater than 100 µM throughout.
Regarding `O=C(/C=C/c1cccnc1)/C=C/c1cccnc1`, the GI50 was 1.43 µM in the test with SK-MEL-2 melanoma; 2.74 µM with SK-OV-3 ovarian; 2.17 µM in the test with OVCAR-5 ovarian; 0.724 µM in the test with SW-620 colon; 0.608 µM in the test on RXF 393 renal; 1.35 µM in the test on COLO 205 colon. The GI50 with SN12C renal is 2.99 µM; in the test with TK-10 renal, 3.11 µM; in the test with HCT-116 colon, 0.164 µM; in the test with MOLT-4 leukemia it was 0.31 µM. For the same compound, the total growth inhibition concentration (TGI) in the test with SK-MEL-2 melanoma turned out to be 3.58 µM; in the test on SK-OV-3 ovarian it was 6.78 µM; in the test with OVCAR-5 ovarian, 5.03 µM; with SW-620 colon it was 2.48 µM; with RXF 393 renal, 1.53 µM; in the test with COLO 205 colon, 2.77 µM. Moreover, the TGI came out at 12.7 µM in the test on SN12C renal, 10.4 µM in the test with TK-10 renal and 0.321 µM in the test on HCT-116 colon.
`CCN=C(N)CSS(=O)(=O)O`: the TGI in the test on SK-MEL-2 melanoma, in the test with SK-OV-3 ovarian, in the test on OVCAR-5 ovarian, in the test on SW-620 colon, with RXF 393 renal and with COLO 205 colon was greater than 100 µM throughout. Besides, the TGI in the test on SN12C renal, in the test on TK-10 renal, with HCT-116 colon and with MOLT-4 leukemia was greater than 100 µM each time.
With `O=C1/C(=C\c2ccccc2)CN(C(=O)c2ccccc2F)C/C1=C\c1ccccc1`, the GI50 is 2.95 µM with SK-MEL-2 melanoma; 2.4 µM in the test with SK-OV-3 ovarian; 2.16 µM in the test on OVCAR-5 ovarian; 1.52 µM in the test on SW-620 colon; 1.8 µM in the test with RXF 393 renal; 2.05 µM in the test on COLO 205 colon. In addition, the GI50 is 1.77 µM with SN12C renal, 2.33 µM in the test on TK-10 renal, 0.321 µM in the test on HCT-116 colon and 2.93 µM in the test on MOLT-4 leukemia. For the same compound, the concentration for total growth inhibition (TGI) was 8.3 µM with SK-MEL-2 melanoma; 5.34 µM with SK-OV-3 ovarian; 5.38 µM in the test on OVCAR-5 ovarian; 3.48 µM in the test with SW-620 colon; 3.41 µM in the test with RXF 393 renal; 4.03 µM in the test with COLO 205 colon. In addition, the TGI came to 3.48 µM in the test with SN12C renal, 5.75 µM with TK-10 renal, 1.03 µM in the test with HCT-116 colon and 8.51 µM in the test with MOLT-4 leukemia.
Regarding `CCOC(=O)C1=C(O)CSC1=Nc1ccc(N=C2SCC(O)=C2C(=O)OCC)cc1`, the TGI in the test on SK-MEL-2 melanoma came out at 33.7 µM; in the test with SK-OV-3 ovarian, 65.3 µM; in the test with OVCAR-5 ovarian, 54 µM; with SW-620 colon, 66.6 µM; in the test on RXF 393 renal, 32.6 µM; with COLO 205 colon, 32.5 µM. The results for the total growth inhibition concentration (TGI) in the test on SN12C renal, in the test with TK-10 renal and with HCT-116 colon were 71.8 µM, 94.7 µM and 35.2 µM, respectively.
`COC(=O)Oc1nn(C(=O)OC)c(=O)c2ccccc12` (tested in a mixture with another compound): the TGI in the test on SK-MEL-2 melanoma, in the test on SK-OV-3 ovarian, in the test with OVCAR-5 ovarian, in the test with SW-620 colon, in the test on RXF 393 renal and in the test on COLO 205 colon was greater than 100 µM each time. For the same compound, the total growth inhibition concentration (TGI) with SN12C renal, with TK-10 renal, in the test on HCT-116 colon and with MOLT-4 leukemia was greater than 100 µM in each case.
Consider `C/C=C(\C)C(=O)O[C@@H]1C=CC(=O)O[C@H]1COC(=O)[C@H](C)O`, for which the GI50 is 17.5 µM in the test on SK-MEL-2 melanoma; 25.2 µM in the test with SK-OV-3 ovarian; 15.3 µM in the test with OVCAR-5 ovarian; 4.79 µM in the test with SW-620 colon; 6.51 µM in the test with RXF 393 renal; 6.57 µM with COLO 205 colon. Also, the GI50 in the test with SN12C renal is 14.5 µM; with TK-10 renal, 13 µM; in the test with HCT-116 colon it was 3.39 µM; in the test on MOLT-4 leukemia, 7.31 µM. Further, the concentration for total growth inhibition (TGI) in the test with SK-MEL-2 melanoma is 68.6 µM; in the test with SK-OV-3 ovarian, 88.6 µM; in the test with OVCAR-5 ovarian, 31.5 µM; in the test with SW-620 colon, 15.9 µM; with RXF 393 renal it was 30 µM; in the test on COLO 205 colon, 23.7 µM. For the same compound, the concentration for total growth inhibition (TGI) came out at 30.2 µM with SN12C renal, 25.8 µM in the test on TK-10 renal, 12.2 µM with HCT-116 colon and 28.4 µM with MOLT-4 leukemia.
